Experimental data: PubChem BioAssay (NCI)
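These data come from cells grown in 96-well plates and exposed to compound for 48 hours at five concentrations. The concentration for full growth arrest is given as TGI.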

Columns and labels:
Experiment in all cases: NCI anticancer screen, dose series, 48 h
NCI-H522 lung = tested on: NCI-H522 lung
IGROV1 ovarian = tested on: IGROV1 ovarian
EKVX NSCLC = tested on: EKVX NSCLC
HL-60(TB) leukemia = tested on: HL-60(TB) leukemia
SN12C renal = tested on: SN12C renal
KM20L2 colon = tested on: KM20L2 colon
SK-MEL-5 melanoma = tested on: SK-MEL-5 melanoma
M19-MEL melanoma = tested on: M19-MEL melanoma
SNB-78 CNS = tested on: SNB-78 CNS
RPMI-8226 leukemia = tested on: RPMI-8226 leukemia
OVCAR-4 ovarian = tested on: OVCAR-4 ovarian
OVCAR-8 ovarian = tested on: OVCAR-8 ovarian
SF-295 CNS = tested on: SF-295 CNS
SK-MEL-28 melanoma = tested on: SK-MEL-28 melanoma
OVCAR-3 ovarian = tested on: OVCAR-3 ovarian
SNB-75 CNS = tested on: SNB-75 CNS
A549 NSCLC = tested on: A549 NSCLC
RXF 393 renal = tested on: RXF 393 renal
SR leukemia = tested on: SR leukemia
ACHN renal = tested on: ACHN renal
UO-31 renal = tested on: UO-31 renal
DMS 114 small cell lung = tested on: DMS 114 small cell lung
786-0 renal = tested on: 786-0 renal
HOP-92 NSCLC = tested on: HOP-92 NSCLC
A498 renal = tested on: A498 renal
CCRF-CEM leukemia = tested on: CCRF-CEM leukemia
MALME-3M melanoma = tested on: MALME-3M melanoma
K-562 leukemia = tested on: K-562 leukemia
SF-539 CNS = tested on: SF-539 CNS
HT29 colon = tested on: HT29 colon
HCT-116 colon = tested on: HCT-116 colon
NCI-H23 lung = tested on: NCI-H23 lung
NCI-H460 lung = tested on: NCI-H460 lung
SF-268 CNS = tested on: SF-268 CNS
U251 CNS = tested on: U251 CNS
SK-OV-3 ovarian = tested on: SK-OV-3 ovarian
MOLT-4 leukemia = tested on: MOLT-4 leukemia
TK-10 renal = tested on: TK-10 renal
HCC-2998 colon = tested on: HCC-2998 colon
CAKI-1 renal = tested on: CAKI-1 renal
LXFL 529 NSCLC = tested on: LXFL 529 NSCLC
SK-MEL-2 melanoma = tested on: SK-MEL-2 melanoma
DMS 273 small cell lung = tested on: DMS 273 small cell lung
M14 melanoma = tested on: M14 melanoma
XF 498 CNS = tested on: XF 498 CNS
NCI-H226 lung = tested on: NCI-H226 lung
KM12 colon = tested on: KM12 colon
SW-620 colon = tested on: SW-620 colon
HCT-15 colon = tested on: HCT-15 colon
SNB-19 CNS = tested on: SNB-19 CNS
DLD-1 colon = tested on: DLD-1 colon
COLO 205 colon = tested on: COLO 205 colon
HOP-18 NSCLC = tested on: HOP-18 NSCLC
LOX IMVI melanoma = tested on: LOX IMVI melanoma
UACC-257 melanoma = tested on: UACC-257 melanoma
HOP-62 NSCLC = tested on: HOP-62 NSCLC
OVCAR-5 ovarian = tested on: OVCAR-5 ovarian
UACC-62 melanoma = tested on: UACC-62 melanoma
RXF-631 renal = tested on: RXF-631 renal

## CC12CCC3C(CCC4CC(OC(=O)Cc5ccc(N(CCCl)CCCl)cc5)CCC43C)C1CCC(=O)N2 (stereo not drawn)
NCI-H522 lung
  TGI: 28.3 µM
IGROV1 ovarian
  TGI: 31 µM
EKVX NSCLC
  TGI: 30.5 µM
HL-60(TB) leukemia
  TGI: 22 µM
SN12C renal
  TGI: 29.6 µM
KM20L2 colon
  TGI: 31.2 µM
SK-MEL-5 melanoma
  TGI: 33.3 µM
M19-MEL melanoma
  TGI: 33.5 µM
SNB-78 CNS
  TGI: 40.7 µM
RPMI-8226 leukemia
  TGI: 35.3 µM
OVCAR-4 ovarian
  TGI: 29.3 µM
OVCAR-8 ovarian
  TGI: 29.2 µM
SF-295 CNS
  TGI: 30.3 µM
SK-MEL-28 melanoma
  TGI: 30.9 µM
OVCAR-3 ovarian
  TGI: 32.1 µM
SNB-75 CNS
  TGI: 28.9 µM
A549 NSCLC
  TGI: 29 µM
RXF 393 renal
  TGI: 28 µM
SR leukemia
  TGI: 16.8 µM
ACHN renal
  TGI: 23.2 µM
UO-31 renal
  TGI: 33.9 µM
DMS 114 small cell lung
  TGI: 25.6 µM
786-0 renal
  TGI: 28.8 µM
HOP-92 NSCLC
  TGI: 30.9 µM
A498 renal
  TGI: 31.4 µM
CCRF-CEM leukemia
  TGI: 22.7 µM
MALME-3M melanoma
  TGI: 32.9 µM
K-562 leukemia
  TGI: 35.3 µM
SF-539 CNS
  TGI: 29.4 µM
HT29 colon
  TGI: 30.2 µM
HCT-116 colon
  TGI: 28.3 µM
NCI-H23 lung
  TGI: 25.8 µM
NCI-H460 lung
  TGI: 22.4 µM
SF-268 CNS
  TGI: 31.1 µM
U251 CNS
  TGI: 28.4 µM
SK-OV-3 ovarian
  TGI: 32.5 µM
MOLT-4 leukemia
  TGI: 24.4 µM
TK-10 renal
  TGI: 35.5 µM
HCC-2998 colon
  TGI: 41.6 µM
CAKI-1 renal
  TGI: 29.5 µM
LXFL 529 NSCLC
  TGI: 30 µM
SK-MEL-2 melanoma
  TGI: 29.8 µM
DMS 273 small cell lung
  TGI: 25.6 µM
M14 melanoma
  TGI: 32.2 µM
XF 498 CNS
  TGI: 30.8 µM
NCI-H226 lung
  TGI: 30.1 µM
KM12 colon
  TGI: 32.1 µM
SW-620 colon
  TGI: 27.8 µM
HCT-15 colon
  TGI: 28.3 µM
SNB-19 CNS
  TGI: 32.5 µM
DLD-1 colon
  TGI: 33 µM
COLO 205 colon
  TGI: 31.1 µM
HOP-18 NSCLC
  TGI: 31.2 µM

## Cn1c(=O)nc2n(-c3cc(C(F)(F)F)cc(C(F)(F)F)c3)c3ccccc3nc-2c1=O
IGROV1 ovarian
  TGI: > 100 µM
EKVX NSCLC
  TGI: > 100 µM
HL-60(TB) leukemia
  TGI: > 100 µM
SN12C renal
  TGI: > 100 µM
KM20L2 colon
  TGI: > 100 µM
SK-MEL-5 melanoma
  TGI: 54.4 µM
M19-MEL melanoma
  TGI: 29.5 µM
SNB-78 CNS
  TGI: > 100 µM
RPMI-8226 leukemia
  TGI: > 100 µM
OVCAR-4 ovarian
  TGI: > 100 µM
OVCAR-8 ovarian
  TGI: > 100 µM
SF-295 CNS
  TGI: > 100 µM
SK-MEL-28 melanoma
  TGI: > 100 µM
OVCAR-3 ovarian
  TGI: > 100 µM
LOX IMVI melanoma
  TGI: > 100 µM
SNB-75 CNS
  TGI: 47.1 µM
A549 NSCLC
  TGI: > 100 µM
RXF 393 renal
  TGI: > 100 µM
SR leukemia
  TGI: > 100 µM
ACHN renal
  TGI: > 100 µM
UO-31 renal
  TGI: > 100 µM
DMS 114 small cell lung
  TGI: > 100 µM
786-0 renal
  TGI: > 100 µM
HOP-92 NSCLC
  TGI: > 100 µM
A498 renal
  TGI: > 100 µM
MALME-3M melanoma
  TGI: > 100 µM
K-562 leukemia
  TGI: > 100 µM
SF-539 CNS
  TGI: > 100 µM
HT29 colon
  TGI: > 100 µM
HCT-116 colon
  TGI: > 100 µM
NCI-H23 lung
  TGI: > 100 µM
NCI-H460 lung
  TGI: > 100 µM
SF-268 CNS
  TGI: > 100 µM
U251 CNS
  TGI: > 100 µM
UACC-257 melanoma
  TGI: > 100 µM
HOP-62 NSCLC
  TGI: > 100 µM
SK-OV-3 ovarian
  TGI: > 100 µM
OVCAR-5 ovarian
  TGI: > 100 µM
MOLT-4 leukemia
  TGI: > 100 µM
TK-10 renal
  TGI: > 100 µM
HCC-2998 colon
  TGI: > 100 µM
CAKI-1 renal
  TGI: > 100 µM
SK-MEL-2 melanoma
  TGI: > 100 µM
DMS 273 small cell lung
  TGI: > 100 µM
M14 melanoma
  TGI: > 100 µM
XF 498 CNS
  TGI: > 100 µM
NCI-H226 lung
  TGI: > 100 µM
KM12 colon
  TGI: > 100 µM
SW-620 colon
  TGI: > 100 µM
HCT-15 colon
  TGI: > 100 µM
SNB-19 CNS
  TGI: > 100 µM
COLO 205 colon
  TGI: > 100 µM

## CCN(CC)CCCNC(=O)c1ccc([N+](=O)[O-])cc1O
NCI-H522 lung
  TGI: > 100 µM
UACC-62 melanoma
  TGI: > 100 µM
IGROV1 ovarian
  TGI: > 100 µM
EKVX NSCLC
  TGI: > 100 µM
HL-60(TB) leukemia
  TGI: > 100 µM
SN12C renal
  TGI: > 100 µM
KM20L2 colon
  TGI: > 100 µM
SK-MEL-5 melanoma
  TGI: > 100 µM
SNB-78 CNS
  TGI: > 100 µM
OVCAR-4 ovarian
  TGI: > 100 µM
OVCAR-8 ovarian
  TGI: > 100 µM
SF-295 CNS
  TGI: > 100 µM
SK-MEL-28 melanoma
  TGI: > 100 µM
OVCAR-3 ovarian
  TGI: > 100 µM
LOX IMVI melanoma
  TGI: > 100 µM
SNB-75 CNS
  TGI: > 100 µM
A549 NSCLC
  TGI: > 100 µM
RXF 393 renal
  TGI: > 100 µM
ACHN renal
  TGI: > 100 µM
UO-31 renal
  TGI: > 100 µM
DMS 114 small cell lung
  TGI: > 100 µM
786-0 renal
  TGI: > 100 µM
HOP-92 NSCLC
  TGI: > 100 µM
A498 renal
  TGI: > 100 µM
CCRF-CEM leukemia
  TGI: > 100 µM
MALME-3M melanoma
  TGI: > 100 µM
K-562 leukemia
  TGI: > 100 µM
SF-539 CNS
  TGI: > 100 µM
HT29 colon
  TGI: > 100 µM
NCI-H23 lung
  TGI: > 100 µM
NCI-H460 lung
  TGI: > 100 µM
SF-268 CNS
  TGI: > 100 µM
U251 CNS
  TGI: > 100 µM
UACC-257 melanoma
  TGI: > 100 µM
HOP-62 NSCLC
  TGI: > 100 µM
SK-OV-3 ovarian
  TGI: > 100 µM
OVCAR-5 ovarian
  TGI: > 100 µM
MOLT-4 leukemia
  TGI: > 100 µM
TK-10 renal
  TGI: > 100 µM
HCC-2998 colon
  TGI: > 100 µM
CAKI-1 renal
  TGI: > 100 µM
LXFL 529 NSCLC
  TGI: > 100 µM
SK-MEL-2 melanoma
  TGI: > 100 µM
DMS 273 small cell lung
  TGI: > 100 µM
M14 melanoma
  TGI: > 100 µM
NCI-H226 lung
  TGI: > 100 µM
KM12 colon
  TGI: > 100 µM
SW-620 colon
  TGI: > 100 µM
HCT-15 colon
  TGI: > 100 µM
RXF-631 renal
  TGI: > 100 µM
SNB-19 CNS
  TGI: > 100 µM
DLD-1 colon
  TGI: > 100 µM
COLO 205 colon
  TGI: > 100 µM

## COc1ccc(CC2c3c(cc(OC)c(OC)c3OC)CCN2C)cc1OC (stereo not drawn)
NCI-H522 lung
  TGI: > 100 µM
EKVX NSCLC
  TGI: > 100 µM
SN12C renal
  TGI: > 100 µM
KM20L2 colon
  TGI: > 100 µM
SK-MEL-5 melanoma
  TGI: > 100 µM
SNB-78 CNS
  TGI: > 100 µM
RPMI-8226 leukemia
  TGI: > 100 µM
OVCAR-4 ovarian
  TGI: > 100 µM
OVCAR-8 ovarian
  TGI: > 100 µM
SF-295 CNS
  TGI: > 100 µM
SK-MEL-28 melanoma
  TGI: > 100 µM
OVCAR-3 ovarian
  TGI: > 100 µM
SNB-75 CNS
  TGI: > 100 µM
A549 NSCLC
  TGI: > 100 µM
ACHN renal
  TGI: > 100 µM
UO-31 renal
  TGI: > 100 µM
786-0 renal
  TGI: > 100 µM
A498 renal
  TGI: > 100 µM
CCRF-CEM leukemia
  TGI: > 100 µM
MALME-3M melanoma
  TGI: > 100 µM
K-562 leukemia
  TGI: > 100 µM
SF-539 CNS
  TGI: > 100 µM
HT29 colon
  TGI: > 100 µM
HCT-116 colon
  TGI: > 100 µM
NCI-H23 lung
  TGI: > 100 µM
NCI-H460 lung
  TGI: > 100 µM
SF-268 CNS
  TGI: > 100 µM
U251 CNS
  TGI: > 100 µM
UACC-257 melanoma
  TGI: > 100 µM
HOP-62 NSCLC
  TGI: > 100 µM
OVCAR-5 ovarian
  TGI: > 100 µM
MOLT-4 leukemia
  TGI: > 100 µM
TK-10 renal
  TGI: > 100 µM
HCC-2998 colon
  TGI: > 100 µM
CAKI-1 renal
  TGI: > 100 µM
LXFL 529 NSCLC
  TGI: > 100 µM
SK-MEL-2 melanoma
  TGI: > 100 µM
M14 melanoma
  TGI: > 100 µM
XF 498 CNS
  TGI: > 100 µM
KM12 colon
  TGI: > 100 µM
SW-620 colon
  TGI: > 100 µM
HCT-15 colon
  TGI: > 100 µM
SNB-19 CNS
  TGI: > 100 µM
DLD-1 colon
  TGI: > 100 µM
HOP-18 NSCLC
  TGI: > 100 µM
